Measured values reported in patent US8748459B2, “Pyridinoylpiperidines as 5-HT1F agonists” (Eli Lilly and Company, priority 2002, dated 2014).

Tested on: rabbit saphenous vein
Assay: rabbit saphenous vein contraction
Protocol: Representative compounds of the present invention were tested in a rabbit saphenous vein contraction assay to measure their ability to mediate vasoconstriction. […] The tips of two 30-gauge stainless steel hypodermic needles bent into an L-shape were slipped into the polyetylene tubing. Vessels were gently pushed from the cannula onto the needles. The needles were then separated so that the lower one was attached with thread to a stationary glass rod and the upper one was tied with thread to the transducer. […] An initial optimum resting force of 1 gm was applied to the saphenous vein. Isometric contractions were recorded as changes in grams of force on a Beckman Dynograph with Statham UC-3 transducers and microscale accessory attachments. Tissues were allowed to equilibrate 1 to 2 hours before exposure to drugs. Cumulative agonist concentration-response curves were generated in tissues and no tissue was used to generate more than two agonist concentration-response curves. […] This vasoconstriction assay measures two important parameters, saphenous vein contraction (EC50) and maximal contraction as a % maximal KCl response (%max KCl).

## CNS(=O)(=O)Cc1ccc2[nH]cc(CCN(C)C)c2c1 [sumatriptan]
EC50 divided by %max KCl
  corrected vasoconstriction EC50: 10.3 nM
Oryctolagus cuniculus
  EC50: 660 nM
